Measurements published in patent publication US11111259B2, “Acylsulfonamide derivatives for treating senescence-associated diseases and disorders” (Unity Biotechnology, Inc., priority 2015, dated 2021).

Experiments:
[1] = target: BCL-2 (Homo sapiens, UniProt P10415); experiment: BCL-binding assay (AlphaLISA competition, BIM peptide); details: 6xHis BCL-2 with biotinylated BIM peptide, 24 hr incubation
Method: (§1) Compounds were prepared as 400× DMSO stock solutions in a 1:4 dilution series then diluted […] in assay buffer (25 mM HEPES pH 7.5, 100 mM NaCl, 0.1% BSA, 0.005% Tween) immediately before use. Aliquots of 400 nM 6xHis-tagged BCL-xL, BCL-2, and BCL-w were thawed on ice and diluted to 0.4 (BCL-XL) or 0.8 (BCL-W and 2) nM in assay buffer. Aliquots of biotinylated BIM and BAD peptides were diluted in assay buffer to 120 and 60 nM respectively. Ten microliters of biotinylated peptide were added to wells of a 96-well PCR plate, followed by ten microliters of inhibitor, then ten microliters of BCL protein, BCL-XL with BAD and BCL-W/2 with BIM. The plates were sealed and incubated at room temperature. After 24 hr, 0.16 μg Anti-His conjugated AlphaLISA acceptor beads were added in 5 μL assay buffer. After one hour at room temperature, 0.16 μg AlphaScreen streptavidin donor beads were added in 5 μL assay buffer and plates were incubated an additional 30 min in the dark. Two 17 μL aliquots of each reaction were plated in a Perkin Elmer 384-well proxiplate, and plates were scanned for using a Perkin Elmer Enspire plate reader. Kd values were calculated in Prism Graph Pad using a one site competitive binding model and previously determined Kd values for each protein peptide pair. […]

[2] = target: T1, BCL-w (Homo sapiens, UniProt Q92843); experiment: as above; details: 6xHis BCL-w with biotinylated BIM peptide, 24 hr incubation
T1 sequence (Q92843 1-193): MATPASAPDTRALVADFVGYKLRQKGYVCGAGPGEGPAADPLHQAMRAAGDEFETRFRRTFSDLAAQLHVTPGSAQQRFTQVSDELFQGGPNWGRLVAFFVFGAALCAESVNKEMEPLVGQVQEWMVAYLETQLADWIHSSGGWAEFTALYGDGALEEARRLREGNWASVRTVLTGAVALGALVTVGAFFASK
Method: as §1

[3] = target: BCL-xL (Homo sapiens, UniProt Q07817); experiment: BCL-binding assay (AlphaLISA competition, BAD peptide); details: 6xHis BCL-xL with biotinylated BAD peptide, 24 hr incubation
Chain of BCL-xL (Q07817 whole entry, species assumed): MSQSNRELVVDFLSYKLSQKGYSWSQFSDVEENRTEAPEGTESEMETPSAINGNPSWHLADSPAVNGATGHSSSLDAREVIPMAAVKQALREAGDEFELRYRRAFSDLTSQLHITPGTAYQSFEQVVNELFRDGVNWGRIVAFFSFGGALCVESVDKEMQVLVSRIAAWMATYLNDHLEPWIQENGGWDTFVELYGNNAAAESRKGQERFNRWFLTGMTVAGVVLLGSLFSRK
Method: as §1

[4] = test system: IMR-90 SnC (irradiated senescent IMR90 cells); experiment: Senolysis assay (CellTiter-Glo viability); type: cell-based, human; details: for EC50: Homo sapiens, IMR-90, light or radiation study, 72 h, X-ray irradiated senescent IMR90 cells, viability three days after compound addition; for SI (ratio of EC50 of non-senescent cells to EC50 of senescent cells): IMR90 non-senescent vs senescent cells
Method: IMR90 cells are maintained in DMEM supplemented with 10% FBS. To prepare a senescent population, cells were trypsinized, diluted to 50,000 per mL, and irradiated with 10-15 Gy of X-ray irradiation. Irradiated cells were plated at 5000 cells per well in one third of a 96-well plate and maintained for two weeks prior to the assay. Four days prior to the assay, non-senescent IMR90s were plated at 2500 per well in the second third of the plate. One day prior to the assay, 2500 non-senescent cells were plated in the final third of the plate. Compounds were prepared as a 200×DMSO dilution series then diluted to 1× in media immediately before adding to cells. Three days after compound addition, cell viability was measured using CellTiter-Glo reagent from Promega. Viability was calculated relative to a DMSO control and EC50 values are calculated in Prism GraphPad. […] The selectivity (SI) of the compounds described herein is a ratio of the EC50 of non-senescent cells to the EC50 of senescent cells. The SI of the compounds described herein is 10 or above for “A” selectivity, between 2 and 10 for “B” selectivity or 2 or less for “C” selectivity.

Chain of BCL-2 (P10415 whole entry, species assumed): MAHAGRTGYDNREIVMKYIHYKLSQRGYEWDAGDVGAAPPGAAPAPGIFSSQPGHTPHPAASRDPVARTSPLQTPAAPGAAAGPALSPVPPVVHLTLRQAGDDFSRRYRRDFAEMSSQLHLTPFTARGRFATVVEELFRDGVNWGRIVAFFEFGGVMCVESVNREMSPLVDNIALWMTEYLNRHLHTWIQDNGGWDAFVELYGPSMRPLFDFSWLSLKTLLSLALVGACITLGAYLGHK

Row | Structure (SMILES) | Kd [1] [nM] | Kd [2] [nM] | Kd [3] [nM] | EC50 [4] [nM] | SI (ratio of EC50 of non-senescent cells to EC50 of senescent cells) [4]
1 | CCOP(=O)(O)CCCN1CCN(CC[C@H](CSc2ccccc2)Nc2ccc(S(=O)(=O)NC(=O)c3ccc(N4CCN(CC5=C(c6ccc(Cl)cc6)CCC(C)(C)C5)CC4)cc3)cc2S(=O)(=O)C(F)(F)F)CC1 [Compound 31] | < 1 | 1 to 10 | < 1 | > 10000 | 
2 | CC1(C)CCC(c2ccc(Cl)cc2)=C(CN2CCN(c3ccc(C(=O)NS(=O)(=O)c4ccc(N[C@H](CCN5CCN(CCCP(=O)(O)O)CC5)CSc5ccccc5)c(S(=O)(=O)C(F)(F)F)c4)cc3)CC2)C1 [Compound 32] | < 1 | 10 to 50 | < 1 | > 10000 | 
3 | CCOP(=O)(CCCN1CCN(CC[C@H](CSc2ccccc2)Nc2ccc(S(=O)(=O)NC(=O)c3ccc(N4CCN(CC5=C(c6ccc(Cl)cc6)CCC(C)(C)C5)CC4)cc3)cc2S(=O)(=O)C(F)(F)F)CC1)OCOC(=O)C(C)(C)C (stereo partly drawn) [Compound 33] | < 1 | 1 to 10 | < 1 | > 10000 | B (between 2 and 10)
4 | CCOP(=O)(CN1CCN(CC(CSc2ccccc2)Nc2ccc(S(=O)(=O)NC(=O)c3ccc(N4CCN(CC5=C(c6ccc(Cl)cc6)CCC(C)(C)C5)CC4)cc3)cc2S(=O)(=O)C(F)(F)F)CC1)OCC (stereo not drawn) [Compound 34] | < 1 | > 50 | 1 to 10 | > 10000 | C (2 or less)
5 | CCOP(=O)(CCN1CCN(CC(CSc2ccccc2)Nc2ccc(S(=O)(=O)NC(=O)c3ccc(N4CCN(CC5=C(c6ccc(Cl)cc6)CCC(C)(C)C5)CC4)cc3)cc2S(=O)(=O)C(F)(F)F)CC1)OCC (stereo not drawn) [Compound 35, Diethyl (2-(4-(2-((4-(N-(4-(4-((4′-chloro-4,4-dimethyl-3,4,5,6-tetrahydro-[1,1′-biphenyl]-2-yl)methyl)piperazin-1-yl)benzoyl)sulfamoyl)-2-((trifluoromethyl)sulfonyl)phenyl)amino)-3-(phenylthio)propyl)piperazin-1-yl)ethyl)phosphonate] | < 1 | > 50 | 1 to 10 | 1000 to 10000 | C (2 or less)
6 | CCOP(=O)(CCCN1CCN(CC[C@H](CSc2ccccc2)Nc2ccc(S(=O)(=O)NC(=O)c3ccc(N4CCN(CC5=C(c6ccc(Cl)cc6)CCC(C)(C)C5)CC4)cc3)cc2S(=O)(=O)C(F)(F)F)CC1)OCOC(=O)OC(C)C (stereo partly drawn) [Compound 36] | < 1 | 10 to 50 | < 1 | 1000 to 10000 | B (between 2 and 10)
7 | CCOP(=O)(CCCN1CCN(CC[C@H](CSc2ccccc2)Nc2ccc(S(=O)(=O)NC(=O)c3ccc(N4CCN(CC5=C(c6ccc(Cl)cc6)CCC(C)(C)C5)CC4)cc3)cc2S(=O)(=O)C(F)(F)F)CC1)OCOC(C)=O (stereo partly drawn) [Compound 37] | < 1 | 1 to 10 | < 1 | 1000 to 10000 | B (between 2 and 10)
8 | CCOP(=O)(CCN1CCN(CC[C@H](CSc2ccccc2)Nc2ccc(S(=O)(=O)NC(=O)c3ccc(N4CCN(CC5=C(c6ccc(Cl)cc6)CCC(C)(C)C5)CC4)cc3)cc2S(=O)(=O)C(F)(F)F)CC1)OCOC(=O)C(C)(C)C (stereo partly drawn) [Compound 38] | < 1 | 10 to 50 | < 1 | 1000 to 10000 | A (10 or above)
9 | CCOP(=O)(CN1CCN(CC[C@H](CSc2ccccc2)Nc2ccc(S(=O)(=O)NC(=O)c3ccc(N4CCN(CC5=C(c6ccc(Cl)cc6)CCC(C)(C)C5)CC4)cc3)cc2S(=O)(=O)C(F)(F)F)CC1)OCOC(=O)OC(C)C (stereo partly drawn) [Compound 39, [[4-[(3R)-3-[4-[[4-[4-[[2-(4-Chlorophenyl)-5,5-dimethyl-cyclohexen-1-yl]methyl]piperazin-1-yl]benzoyl]sulfamoyl]-2-(trifluoromethylsulfonyl)anilino]-4-phenylsulfanyl-butyl]piperazin-1-yl]methyl-ethoxy-phosphoryl]oxymethyl isopropyl carbonate] | < 1 | 10 to 50 | < 1 | < 1000 | A (10 or above)
10 | CC1(C)CCC(c2ccc(Cl)cc2)=C(CN2CCN(c3ccc(C(=O)NS(=O)(=O)c4ccc(N[C@H](CCN5CCN(CCCP(=O)(OCOC(=O)C(C)(C)C)OCOC(=O)C(C)(C)C)CC5)CSc5ccccc5)c(S(=O)(=O)C(F)(F)F)c4)cc3)CC2)C1 [Compound 40] | < 1 | 10 to 50 | < 1 | > 10000 | B (between 2 and 10)
11 | CCOP(=O)(C=C1CCN(CC[C@H](CSc2ccccc2)Nc2ccc(S(=O)(=O)NC(=O)c3ccc(N4CCN(CC5=C(c6ccc(Cl)cc6)CCC(C)(C)C5)CC4)cc3)cc2S(=O)(=O)C(F)(F)F)CC1)OCC [Compound 41, Diethyl (R)-((1-(3-((4-(N-(4-(4-((4′-chloro-4,4-dimethyl-3,4,5,6-tetrahydro-[1,1′-biphenyl]-2-yl)methyl)piperazin-1-yl)benzoyl)sulfamoyl)-2-((trifluoromethyl)sulfonyl)phenyl)amino)-4-(phenylthio)butyl)piperidin-4-ylidene)methyl)phosphonate] | < 1 | 1 to 10 | < 1 | < 1000 | A (10 or above)
12 | CC1(C)CCC(c2ccc(Cl)cc2)=C(CN2CCN(c3ccc(C(=O)NS(=O)(=O)c4ccc(N[C@H](CCN5CCN(CCP(=O)(OCOC(=O)C(C)(C)C)OCOC(=O)C(C)(C)C)CC5)CSc5ccccc5)c(S(=O)(=O)C(F)(F)F)c4)cc3)CC2)C1 [Compound 43, (R)-(((2-(4-(3-((4-(N-(4-(4-((4′-chloro-4,4-dimethyl-3,4,5,6-tetrahydro-[1,1′-biphenyl]-2-yl)methyl)piperazin-1-yl)benzoyl)sulfamoyl)-2-((trifluoromethyl)sulfonyl)phenyl)amino)-4-(phenylthio)butyl)piperazin-1-yl)ethyl)phosphoryl)bis(oxy))bis(methylene) bis(2,2-dimethylpropanoate)] | < 1 | 10 to 50 | 1 to 10 | > 10000 | 
13 | CCOP(=O)(CN1CCN(CC[C@H](C[S+]([O-])c2ccccc2)Nc2ccc(S(=O)(=O)NC(=O)c3ccc(N4CCN(CC5=C(c6ccc(Cl)cc6)CCC(C)(C)C5)CC4)cc3)cc2S(=O)(=O)C(F)(F)F)CC1)OCC (stereo partly drawn) [Compound 44, Diethyl ((4-((3R)-3-((4-(N-(4-(4-((4′-chloro-4,4-dimethyl-3,4,5,6-tetrahydro-[1,1′-biphenyl]-2-yl)methyl)piperazin-1-yl)benzoyl)sulfamoyl)-2-((trifluoromethyl)sulfonyl)phenyl)amino)-4-(phenylsulfinyl)butyl)piperazin-1-yl)methyl)phosphonate] | < 1 | 10 to 50 | < 1 | 1000 to 10000 | B (between 2 and 10)
14 | CC1(C)CCC(c2ccc(Cl)cc2)=C(CN2CCN(c3ccc(C(=O)NS(=O)(=O)c4ccc(N[C@H](CCN5CCN(CCP(=O)(O)OCOC(=O)C(C)(C)C)CC5)CSc5ccccc5)c(S(=O)(=O)C(F)(F)F)c4)cc3)CC2)C1 [Compound 45, (((2-(4-((R)-3-((4-(N-(4-(4-((4′-chloro-4,4-dimethyl-3,4,5,6-tetrahydro-[1,1′-biphenyl]-2-yl)methyl)piperazin-1-yl)benzoyl)sulfamoyl)-2-((trifluoromethyl)sulfonyl)phenyl)amino)-4-(phenylthio)butyl)piperazin-1-yl)ethyl)(hydroxy)phosphoryl)oxy)methyl pivalate] | < 1 | 1 to 10 | < 1 | > 10000 | 
